SMILES strings stand for the structures. Entries after “also recorded” stand apart in the source; their conditions may differ.

The subject of data set [1] is Rhabdomyosarcoma cells (Rh30). The experiment in a line: Growth of rhabdomyosarcoma cells (clonogenic / soft agar). The data set is classed as cell-based. Conditions: for Growth of rhabdomyosarcoma cells, clonogenic assay, single agent: single agents. How it is done:
(§1) (A) Ewing sarcoma cells (A4573) cells were on soft agar and treated with doxorubicin (2 nM) singly or in combination with compound 4 (10 μM) for 72 h. At the end of treatment, regular growth media was added and cells were further incubated for 8-10 days and colonies were stained with crystal violet and counted. (B) Rhabdomyosarcoma cells (Rh30) cells were on soft agar and treated with doxorubicin (2 nM) and etoposide (5-nM) singly or in combination with compound 4 (10 μM) for 72 h. At the end of treatment, regular growth media was added and cells were further incubated for 8-10 days and colonies were stained with crystal violet and counted;
(§2) For the clonogenic assays, 1,000 cells/well were plated in a 6-well plate. The next day, the cells were treated with vehicle (DMSO), Nrf2 inhibitor, a chemotherapeutic drug, or a combination of Nrf2 and chemotherapeutic drugs for 48 hrs. The drug containing media was then replaced with regular growth media and the cells were incubated for an additional 10 days. At the end of incubation period, the colonies were stained with Crystal Violet and imaged.

Data set [2] deals with T1, Nrf2-MAFG protein complex binding to fluorescein labeled ARE oligos (Homo sapiens, UniProt Q16236).
T1 construct: made in house
T1 sequence (Q16236 1-605): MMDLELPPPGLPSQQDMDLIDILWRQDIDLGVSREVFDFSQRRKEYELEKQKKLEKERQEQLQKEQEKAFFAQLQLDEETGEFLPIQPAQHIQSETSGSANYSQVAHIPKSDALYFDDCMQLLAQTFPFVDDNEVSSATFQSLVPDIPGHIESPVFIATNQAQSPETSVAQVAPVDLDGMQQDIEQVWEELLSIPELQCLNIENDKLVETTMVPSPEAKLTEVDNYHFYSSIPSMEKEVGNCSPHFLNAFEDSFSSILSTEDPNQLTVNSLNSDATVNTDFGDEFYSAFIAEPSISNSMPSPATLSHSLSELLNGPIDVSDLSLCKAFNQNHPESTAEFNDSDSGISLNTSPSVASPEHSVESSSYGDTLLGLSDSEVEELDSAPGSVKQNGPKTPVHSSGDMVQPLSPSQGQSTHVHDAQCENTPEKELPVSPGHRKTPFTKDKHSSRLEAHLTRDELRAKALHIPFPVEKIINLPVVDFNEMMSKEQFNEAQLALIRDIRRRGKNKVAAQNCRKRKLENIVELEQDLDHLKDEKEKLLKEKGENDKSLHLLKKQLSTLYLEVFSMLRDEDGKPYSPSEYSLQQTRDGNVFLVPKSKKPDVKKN
The experiment in a line: Fluorescence polarization (FP) assay of DNA binding. The data set is classed as biochemical. The following applies: increasing concentration of Nrf2 inhibitor. Here is the method: To determine if the presently disclosed small molecule inhibitors were specifically interacting with Nrf2 or the Nrf2-MAF protein complex, a fluorescence polarization assay was developed. Ammonium aurintricarboxylate, a potent inhibitor of protein-nucleic acid interactions was used as positive control in the assay. The concentration of budesonide was 10 μM in the assay.
FP assay data showing inhibition of binding of Nrf2-MAFG protein complex to fluorescein labeled ARE oligos in the presence of compound 1 (FIG. 2), compound 4 (FIG. 3), and compound 3 (FIG. 4) are shown. Ammonium aurintricarboxylate (ATA-10 μM), a well-known inhibitor of DNA binding activity, was included as positive control. […] X-axis represents increasing concentration of Nrf2 inhibitor.
Briefly, fluorescein-labeled oligonucleotides corresponding to Anti-oxidant Response Element (ARE) were diluted to the appropriate concentration in PBS. Nrf2/MafG heterodimer was prepared by gel filtration with mixed samples of purified Nrf2 and MafG proteins. MafG/Nrf2 complex was then diluted with the buffer containing Nrf2 inhibitors or buffer only to the appropriate starting concentration and then serially diluted and incubated at 4° C. for 1 h. A mixture containing fluorescein-labeled ARE and purified protein sample was incubated at 4° C. for another 1 h. After pre-warming samples to 25° C. for 2 to 3 min, fluorescence anisotropy and total intensity was measured for each dilution using a FlexStation 3 (Molecular Devices, LLC) in Basic Binding Assay-FP mode. Ammonium aurintricarboxylate (ATA-10 μM), a well-known inhibitor of DNA binding activity, was included as positive control.

A short description of data set [3]: In vivo pharmacokinetic plasma profile. Conditions: CD-1 mice; for Compound retained in the blood until / Time by which most of the compound is cleared from the blood: IP 30 mg/kg, IV 3 mg/kg, plasma. Here is the method: For the in vivo pharmacokinetic studies, single intraperitoneal (IP; 30 mg/kg) and intravenous (IV; 3 mg/kg) injection was carried out using CD-1 mice. (n=3 per group/time point). Compounds in the plasma were quantified using Mass Spectrometry.

Data set [4] relates to orthotopic lung tumor model. The data set is described as follows: Orthotopic lung tumor model, NSCLC xenograft. The data set is classed as in vivo, Mice. Conditions: three weeks post-treatment; single agent and combination with carboplatin. How it is done: A549 cells were injected in the flanks of athymic nude mice and once tumor volume reached 50-100 mm^3, treatment was initiated. Vehicle, carboplatin (5 mg/kg daily Monday to Friday), compound 4 (30 mg/kg daily Monday to Friday) or a combination of compound 4 and carboplatin was administered for three weeks. Values represent tumor volume ±s.e.m. for all groups (A). […] Tumors were excised and weight at the end of treatment period. […] For each group, pretreatment available lung volume was defined as 100% and compared with post-treatment lung volumes. Mice in the vehicle treated group died at 3 weeks;

Data set [5] relates to Ewing sarcoma cells (A4573). The data set is described as follows: Soft agar colony assay in Ewing sarcoma cells. The data set is classed as cell-based. Conditions: 72 h. How it is done: as §1
In data set [6] the test system is H460 lung cancer cells. The experiment in a line: Clonogenic assay in H460 lung cancer cells. The data set is classed as cell-based. The following applies: for Cytotoxicity of chemotherapeutic drugs in combination with the compound, clonogenic assay: H460 cells, combination with chemotherapeutic drug. Here is the method:
(§3) (A) H460, a NSCLC with a point mutation in KEAP1, is more sensitive to compound 4 than H460-KEAP1 Knock-in H460 cells expressing WT KEAP1. The cells were incubated with the inhibitor for 48 h. Colonies were stained with crystal violet staining and manually counted. (B-C) A549 and H460 cells were treated with different concentrations of paclitaxel, doxorubicin and carboplatin singly or in combination with compound 4 for 72 h. At the end of treatment, regular growth media was added and cells were further incubated for 8-10 days and stained with crystal violet. […] Cells treated with Chemo drug alone or a combination of compound 4 and chemo drug were incubated with luminogenic caspase substrate and change in luminescence was measured. Caspase activity was normalized to the number of viable cells using CellTiter-Blue assay.
as §2

Data set [7] has as its system Caspase 3/7 activity, H460 cells. The data set is described as follows: Caspase 3/7 activity in H460 cells. The data set is classed as cell-based. The following applies: combination of compound and chemo drug. Here is the method:
as §3

In data set [8] the test system is mRNA expression of Nrf2 and its downstream target genes, GCLm and NQO1, H1437 cells. The experiment in a line: Real time RT-PCR of Nrf2 and downstream target genes in H1437 cells. The data set is classed as cell-based. How it is done:
For the real time reverse transcription polymerase chain reaction (RT-PCR) assay, cells were treated with Nrf2 inhibitors for 36-48 hrs, followed by total RNA isolation. The mRNA expression of Nrf2 and its downstream target genes, GCLm and NQO1 was measured by RT-PCR. (NC means no significant change in gene expression in comparison with vehicle group; M represents the concentration of drug used in the gene expression studies and it is twice the IC50 values generated from primary screening with A549-ARE reporter cell lines).

Consider `O=C(Nc1ncc(Cc2ccc(C(F)(F)F)cc2)s1)c1ccc(-c2cccc([N+](=O)[O-])c2)o1` [Compound 1], for which the “Growth of rhabdomyosarcoma cells, clonogenic assay, single agent” value (“Growth of rhabdomyosarcoma cells” for short) in data set [1] is reported as “suppress growth of rhabdomyosarcoma cells”. Also, the “Binding of Nrf2-MAFG protein complex to fluorescein labeled ARE oligos” value (“Binding of Nrf2-MAFG protein complex” for short) in data set [2] is “Dose dependent reduction in binding”. In addition, in data set [3], the “Retention time in the blood, comparison of compounds 3, 4 and 1” value is on record as “retained in the blood for the longest time”; the “Compound retained in the blood until” value was “about 24 hr”.

Take `Cc1ccccc1C(=O)N1CCc2cc(-c3nc(NC(=O)Cc4ccc5c(c4)OCO5)sc3C)ccc21` [compound 4]: the “Tumor free lung volume, orthotopic lung tumor model” value in data set [4] was “shows anti-tumor efficacy as a single agent and in combination with carboplatin”. The “Colony growth of A4573 cells on soft agar, combination” value in data set [5] (10 μM with doxorubicin (2 nM)) was “potentiates the cytotoxicity of standard care chemotherapy drugs”. Moreover, in data set [5] (10 μM), the “Colony growth of A4573 cells on soft agar, single agent” value is listed as “significant growth inhibitory activity as single agent”. For the same compound, in data set [1] (10 μM with doxorubicin (2 nM) and etoposide, 72 h), the “Colony growth of Rh30 cells on soft agar, combination” value is “potentiates the cytotoxicity of standard care chemotherapy drugs”. In addition, the “Colony growth of Rh30 cells on soft agar, single agent” value in data set [1] (10 μM, 72 h) is “significant growth inhibitory activity as single agent”. In addition, in data set [1], the “Growth of rhabdomyosarcoma cells” value was “suppress growth of rhabdomyosarcoma cells”. In addition, the “Binding of Nrf2-MAFG protein complex” value in data set [2] was “Dose dependent reduction in binding”. Besides, in data set [3], the “Compound retained in the blood until” value is “about 12 hr” and the “Time by which most of the compound is cleared from the blood” value is ≤ 24 h. Moreover, the “Selective toxicity: H460 (KEAP1 point mutation) versus H460-KEAP1 Knock-in cells expressing WT KEAP1” value in data set [6] (48 h, colonies counted) is given as “selectively toxic to cells with KEAP1 mutations”. Besides, the “Cytotoxicity of chemotherapeutic drugs in combination with the compound, clonogenic assay” value in data set [6] is “enhance the cytotoxicity of the chemotherapeutic drug paclitaxel; also recorded: potentiates the toxicity of standard care chemotherapy drugs”. Also, in data set [7], the “Caspase 3/7 activity” value is recorded as “increased Caspase 3/7 activity”. Besides, the “Nrf2 (and GCLm, NQO1) expression, real time PCR based validation” value in data set [8] is “significant reduction in Nrf2, GCLm, and NQO1 expression”.

Take `CC1(C)CC2CC(C)(CN2S(=O)(=O)c2ccc(C(=O)Nc3ccc(Cl)c(S(=O)(=O)N4CCOCC4)c3)cc2)C1` (centres unmarked) [compound 3]: the “Growth of rhabdomyosarcoma cells” value in data set [1] is “suppress growth of rhabdomyosarcoma cells”. In addition, the “Binding of Nrf2-MAFG protein complex” value in data set [2] is “Dose dependent reduction in binding”. Also, in data set [3], the “Retention time in the blood, comparison of compounds 3, 4 and 1” value was “cleared the fastest”; the “Time by which most of the compound is cleared from the blood” value was “about 8 hrs”. The “Cytotoxicity of chemotherapeutic drugs in combination with the compound, clonogenic assay” value in data set [6] was “enhance the cytotoxicity of standard care chemotherapeutic drugs”. For the same compound, the “Nrf2 (and GCLm, NQO1) expression, real time PCR based validation” value in data set [8] is listed as “inhibit Nrf2 expression”.
